In paper PMC7918738, “Microtubule Destabilizing Sulfonamides as an Alternative to Taxane-Based Chemotherapy” (International Journal of Molecular Sciences, 2021):
pIC50: −log10 of the molar value. Read-outs that look alike come from different tables or passages of the source.

How the values were obtained:
[1] = tested on: MCF7 (breast adenocarcinoma); test: Antiproliferative activity against MCF7 (XTT colorimetric method); type: cell-based; conditions: Homo sapiens, 72 h treatment
Description: The in vitro antiproliferative activity of MDS at 1 µM after 72 h treatments was evaluated by a colorimetric method against the human tumor cell lines HeLa (cervix epithelioid carcinoma) and MCF7 (breast adenocarcinoma). Compounds showing more than 40% inhibition at 1 µM in at least three independent assays were evaluated in a range of concentrations between 0.1 nM and 10 µM for the determination of half-maximal inhibitory concentrations (IC50) (Table 1). Paclitaxel, CA-4, and ABT-751 were used as references.
(§1) MCF7 (human breast carcinoma), SKOV-3 (human ovarian carcinoma), OVCAR-3 (human ovarian carcinoma), OVCAR-8 (human ovarian carcinoma), and HeLa (human cervical carcinoma) cell lines were cultured in Dulbecco’s Modified Eagle’s Medium (DMEM) (Gibco, Thermo Fischer Scientific) containing 10% (v/v) heat-inactivated fetal bovine serum (HIFBS) (Lonza-Cambrex, Karlskoga, Sweden), 2 mM L-glutamine (Lonza-Cambrex, Karlskoga, Sweden), 100 μg/mL streptomycin, and 100 IU/mL penicillin (Lonza-Cambrex) at 37 °C in humidified 95% air and 5% CO2. HT-29 (human colon carcinoma), IGROV-1 (human ovarian carcinoma), and A2780 (human ovarian carcinoma) cell lines were cultured in RPMI 1640 medium (Gibco, Thermo Fischer Scientific) supplemented with 10% HIFBS, 100 μg/mL streptomycin, and 100 IU/mL penicillin at 37 °C in humidified 95% air and 5% CO2 atmosphere. The presence of mycoplasma was routinely checked with MycoAlert kit (Lonza-Cambrex) and only mycoplasma-free cells were used in the experiments. Ovarian tumor cell lines were originally acquired from Dr Atanasio Pandiella from Centro de Investigación del Cáncer (CIC), Salamanca, Spain. HeLa, HT-29 and MCF7 tumor cell lines were provided by Dr Faustino Mollinedo from Centro de Investigaciones Biológicas Margarita Salas, Madrid, Spain.
MCF7, HeLa, and HT-29 cell proliferation, when treated with the corresponding compounds, were determined using the XTT (sodium 3’-[1(phenylaminocarbonyl)-3,4-tetrazolium]-bis(4-methoxy-6-nitro)-benzenesulfonic acid hydrate) cell proliferation kit (Roche Molecular Biochemicals, Mannheim, Germany). A freshly prepared mixture of XTT labeling reagent with 0.02% (v/v) PMS (N-methyl-dibenzopyrazine methyl sulfate) electron coupling reagent was added to cells (50 µL/well in 96-well plates, total volume of 160 µL/well). Cells were incubated under standard culture conditions for 4 h (MCF7 and HeLa) or 6 h (HT-29). The absorbance of the formazan product generated was measured at 450 nm using a multi-well plate reader. SKOV-3, OVCAR-3, OVCAR-8, IGROV-1, A-2780 cell proliferation, when treated with the corresponding compound, were determined using MTT (3-(4,5-dimethylthiazol-2-yl)-2,5-diphenyl-2H-tetrazolium bromide) (Sigma-Aldrich, St. Louis, MO, USA). MTT in Phosphate Buffer Saline (PBS) (5 mg/ml) was added to cells (110 µL/well in 24-well plates, total volume of 1110 µL/well). After 1 hour of incubation, the medium was aspirated, and formazan violet crystals were dissolved in dimethyl sulfoxide (DMSO) (500 µL/well). Absorbance was measured at 570 nm in a plate reader (Ultra Evolution, Tecan, Männedorf, Suiza). To determine cell viability, cells in exponential growth phase were seeded (100 µL/well in 96-well plates and 1000 µL/well in 24-well plates) with appropriate cell line concentration (1.5·10^4 cells/mL for MCF7 and HeLa, 3·10^4 cells/mL for HT-29, and 1·10^4 cells/mL for SKOV-3, OVCAR-3, OVCAR-8, IGROV-1, and A-2780) in complete RPMI 1640 or DMEM medium at 37°C and 5% CO2 atmosphere. After 24 h incubation, to allow cells to attach to the plates, all compounds were added at 1 µM concentration and the effect on the proliferation was evaluated 72 h post-treatment. Compounds showing antiproliferative effects at tested concentration were selected for IC50 calculation (50% inhibitory concentration with respect to the untreated controls) from 10^−5 to 10^−10 M concentration. Non-linear curves fitting the experimental data were carried out for each compound. […]

[2] = tested on: HT-29 (colon adenocarcinoma); test: Antiproliferative activity against CA-4-resistant HT-29 with or without verapamil (sensitivity to MDR pumps, XTT); type: cell-based, human; conditions: Homo sapiens, read-out: Antiproliferative Activity IC50 HT-29
Excerpt: Detecting changes in drug potency when inhibiting MDR-mediated efflux reflect that these transporters reduce the intracellular drug concentration. HT-29 has been reported to express moderate levels of MDR1, accounting for a resistant phenotype. A comparison of the antiproliferative IC50 values of each MDS in the presence or absence of verapamil provides an estimate of the susceptibility of each compound to efflux pumps.
as §1
MCF7, HeLa, and HT-29 cell proliferation, when treated with the corresponding compounds, were determined using the XTT (sodium 3’-[1(phenylaminocarbonyl)-3,4-tetrazolium]-bis(4-methoxy-6-nitro)-benzenesulfonic acid hydrate) cell proliferation kit (Roche Molecular Biochemicals, Mannheim, Germany). A freshly prepared mixture of XTT labeling reagent with 0.02% (v/v) PMS (N-methyl-dibenzopyrazine methyl sulfate) electron coupling reagent was added to cells (50 µL/well in 96-well plates, total volume of 160 µL/well). Cells were incubated under standard culture conditions for 4 h (MCF7 and HeLa) or 6 h (HT-29). The absorbance of the formazan product generated was measured at 450 nm using a multi-well plate reader. SKOV-3, OVCAR-3, OVCAR-8, IGROV-1, A-2780 cell proliferation, when treated with the corresponding compound, were determined using MTT (3-(4,5-dimethylthiazol-2-yl)-2,5-diphenyl-2H-tetrazolium bromide) (Sigma-Aldrich, St. Louis, MO, USA). MTT in Phosphate Buffer Saline (PBS) (5 mg/ml) was added to cells (110 µL/well in 24-well plates, total volume of 1110 µL/well). After 1 hour of incubation, the medium was aspirated, and formazan violet crystals were dissolved in dimethyl sulfoxide (DMSO) (500 µL/well). Absorbance was measured at 570 nm in a plate reader (Ultra Evolution, Tecan, Männedorf, Suiza). To determine cell viability, cells in exponential growth phase were seeded (100 µL/well in 96-well plates and 1000 µL/well in 24-well plates) with appropriate cell line concentration (1.5·10^4 cells/mL for MCF7 and HeLa, 3·10^4 cells/mL for HT-29, and 1·10^4 cells/mL for SKOV-3, OVCAR-3, OVCAR-8, IGROV-1, and A-2780) in complete RPMI 1640 or DMEM medium at 37°C and 5% CO2 atmosphere. After 24 h incubation, to allow cells to attach to the plates, all compounds were added at 1 µM concentration and the effect on the proliferation was evaluated 72 h post-treatment. […] Non-linear curves fitting the experimental data were carried out for each compound. Compounds were dissolved in DMSO and the final solvent concentrations never exceeded 0.5% (v/v). The control wells included […] with 0.5% (v/v) DMSO and the positive control. 10 µM verapamil was included as a control for the HT-29 cell line.

[3] = HT-29, 72 h, XTT, without verapamil

SMILES	pIC50 [1]	pIC50 [2, 3]	pIC50 ([2]; HT-29, 72 h)
COc1ccc(/C=C\c2cc(OC)c(OC)c(OC)c2)cc1O [Combretastatin A-4, reference compound]	9.00	6.52	
COc1ccc(S(=O)(=O)N(c2cc(OC)c(OC)c(OC)c2)S(=O)(=O)c2ccc(OC)cc2)cc1 [Compound 1b]	< 6.00	< 6.00	
COc1ccc(S(=O)(=O)N(C)c2cc(OC)c(OC)c(OC)c2)cc1 [Compound 2a]	6.90	6.84	
CCN(c1cc(OC)c(OC)c(OC)c1)S(=O)(=O)c1ccc(OC)cc1 [Compound 3]	7.06	6.04	
COc1ccc(S(=O)(=O)N(CCBr)c2cc(OC)c(OC)c(OC)c2)cc1 [Compound 4]	6.47		6.30
COc1ccc(S(=O)(=O)N(C(C)=O)c2cc(OC)c(OC)c(OC)c2)cc1 [Compound 5]	6.57	6.13	
COc1ccc(S(=O)(=O)N(CC(=O)O)c2cc(OC)c(OC)c(OC)c2)cc1 [Compound 8]	< 6.00	< 6.00	
COc1ccc(S(=O)(=O)Nc2cc(OC)c(OC)c(OC)c2[N+](=O)[O-])cc1 [Compound 11]	< 6.00	< 6.00	
COc1ccc(S(=O)(=O)N(C)c2cc(OC)c(OC)c(OC)c2NC(C)=O)cc1 [Compound 16]	< 6.00	< 6.00	
COc1ccc(S(=O)(=O)Nc2cc(OC)c(OC)c(OC)c2N(C)C)cc1 [Compound 18]	< 6.00	< 6.00	
COc1ccc(S(=O)(=O)N(C)c2cc(OC)c(OC)c(OC)c2N(C)C)cc1 [Compound 19]	< 6.00	< 6.00	
COc1ccc(S(=O)(=O)Nc2cc(OC)c(OC)c(OC)c2NC(=O)CNC(=O)OC(C)(C)C)cc1 [Compound 21]	< 6.00	< 6.00	
COc1ccc(S(=O)(=O)n2nnc3c(OC)c(OC)c(OC)cc32)cc1 [Compound 23]	< 6.00	< 6.00	
COc1ccc(S(=O)(=O)n2cnc3c(OC)c(OC)c(OC)cc32)cc1 [Compound 24]	< 6.00	< 6.00	
COc1cc(NS(=O)(=O)c2ccc(N(C)C)cc2)cc(OC)c1OC [Compound 28]	6.76	6.05	
CCN(c1cc(OC)c(OC)c(OC)c1)S(=O)(=O)c1ccc(N(C)C)cc1 [Compound 30]	7.09	6.34	
COc1cc(N(C(C)=O)S(=O)(=O)c2ccc(N(C)C)cc2)cc(OC)c1OC [Compound 31]	6.87	6.85	

More lines, main results first:

pIC50 [1]	pIC50 [2, 3]	SMILES	pIC50 ([2]; HT-29, 72 h)
6.43	6.05	COc1ccc(S(=O)(=O)Nc2cc(OC)c(OC)c(OC)c2)cc1 [Compound 1a]	
6.56	6.64	COc1ccc(S(=O)(=O)N(CC#N)c2cc(OC)c(OC)c(OC)c2)cc1 [Compound 6]	
6.47	6.63	CCOC(=O)CN(c1cc(OC)c(OC)c(OC)c1)S(=O)(=O)c1ccc(OC)cc1 [Compound 7]	
6.08	< 6.00	COc1ccc(S(=O)(=O)N(Cc2ccccc2)c2cc(OC)c(OC)c(OC)c2)cc1 [Compound 9]	
< 6.00	< 6.00	COc1ccc(S(=O)(=O)N(C(=O)OCc2ccccc2)c2cc(OC)c(OC)c(OC)c2)cc1 [Compound 10]	
< 6.00	< 6.00	COc1ccc(S(=O)(=O)Nc2cc(OC)c(OC)c(OC)c2N)cc1 [Compound 12]	
< 6.00	< 6.00	COc1ccc(S(=O)(=O)N(C)c2cc(OC)c(OC)c(OC)c2N)cc1 [Compound 13]	
< 6.00	< 6.00	COc1ccc(S(=O)(=O)Nc2cc(OC)c(OC)c(OC)c2NCN(c2cc(OC)c(OC)c(OC)c2N)S(=O)(=O)c2ccc(OC)cc2)cc1 [Compound 14]	
< 6.00	< 6.00	COc1ccc(S(=O)(=O)Nc2cc(OC)c(OC)c(OC)c2NC(C)=O)cc1 [Compound 15]	
< 6.00	< 6.00	COc1ccc(S(=O)(=O)Nc2cc(OC)c(OC)c(OC)c2NC=O)cc1 [Compound 17]	
< 6.00	< 6.00	COc1ccc(S(=O)(=O)Nc2cc(OC)c(OC)c(OC)c2Br)cc1 [Compound 20]	
< 6.00	< 6.00	COc1cc(NS(=O)(=O)c2ccc([N+](=O)[O-])cc2)cc(OC)c1OC [Compound 25]	
< 6.00	< 6.00	COc1cc(NS(=O)(=O)c2ccc(N)cc2)cc(OC)c1OC [Compound 26]	
< 6.00	< 6.00	COc1cc(N(C)S(=O)(=O)c2ccc(N)cc2)cc(OC)c1OC [Compound 27]	
7.52	6.99	COc1cc(N(C)S(=O)(=O)c2ccc(N(C)C)cc2)cc(OC)c1OC [Compound 29a]	
6.92	6.91	COc1cc(N(CC#N)S(=O)(=O)c2ccc(N(C)C)cc2)cc(OC)c1OC [Compound 32]	
7.04	6.06	CCOC(=O)CN(c1cc(OC)c(OC)c(OC)c1)S(=O)(=O)c1ccc(N(C)C)cc1 [Compound 33]	
< 6.00	< 6.00	COc1cc(N(CC(=O)O)S(=O)(=O)c2ccc(N(C)C)cc2)cc(OC)c1OC [Compound 34]	
7.00	6.78	COc1cc(N(Cc2ccccc2)S(=O)(=O)c2ccc(N(C)C)cc2)cc(OC)c1OC [Compound 35a]	
< 6.00	6.16	COc1cc(N(C(=O)OCc2ccccc2)S(=O)(=O)c2ccc(N(C)C)cc2)cc(OC)c1OC [Compound 35b]	
